Measurements published in patent publication US20230406865A1, “CRYSTAL FORM OF FREE BASE OF INHIBITOR CONTAINING BICYCLIC RING DERIVATIVE AND PREPARATION METHOD AND APPLICATION OF CRYSTAL FORM” (SHANGHAI HANSOH BIOMEDICAL CO., LTD., priority 2020, published 2023).

Legend:
[1] = biological target: T1, KIF5B-RET (Homo sapiens, UniProt P07949); experiment: HTRF kinase activity inhibition, KIF5B-RET; format: biochemical; conditions: ATP at Km
T1 construct: purchased SignalChem R02-19FG-05; the other entry of the earlier key: KIF5B (P33176, Kinesin-1 heavy chain)
T1 sequence (P07949 with tags, fused parts or gaps): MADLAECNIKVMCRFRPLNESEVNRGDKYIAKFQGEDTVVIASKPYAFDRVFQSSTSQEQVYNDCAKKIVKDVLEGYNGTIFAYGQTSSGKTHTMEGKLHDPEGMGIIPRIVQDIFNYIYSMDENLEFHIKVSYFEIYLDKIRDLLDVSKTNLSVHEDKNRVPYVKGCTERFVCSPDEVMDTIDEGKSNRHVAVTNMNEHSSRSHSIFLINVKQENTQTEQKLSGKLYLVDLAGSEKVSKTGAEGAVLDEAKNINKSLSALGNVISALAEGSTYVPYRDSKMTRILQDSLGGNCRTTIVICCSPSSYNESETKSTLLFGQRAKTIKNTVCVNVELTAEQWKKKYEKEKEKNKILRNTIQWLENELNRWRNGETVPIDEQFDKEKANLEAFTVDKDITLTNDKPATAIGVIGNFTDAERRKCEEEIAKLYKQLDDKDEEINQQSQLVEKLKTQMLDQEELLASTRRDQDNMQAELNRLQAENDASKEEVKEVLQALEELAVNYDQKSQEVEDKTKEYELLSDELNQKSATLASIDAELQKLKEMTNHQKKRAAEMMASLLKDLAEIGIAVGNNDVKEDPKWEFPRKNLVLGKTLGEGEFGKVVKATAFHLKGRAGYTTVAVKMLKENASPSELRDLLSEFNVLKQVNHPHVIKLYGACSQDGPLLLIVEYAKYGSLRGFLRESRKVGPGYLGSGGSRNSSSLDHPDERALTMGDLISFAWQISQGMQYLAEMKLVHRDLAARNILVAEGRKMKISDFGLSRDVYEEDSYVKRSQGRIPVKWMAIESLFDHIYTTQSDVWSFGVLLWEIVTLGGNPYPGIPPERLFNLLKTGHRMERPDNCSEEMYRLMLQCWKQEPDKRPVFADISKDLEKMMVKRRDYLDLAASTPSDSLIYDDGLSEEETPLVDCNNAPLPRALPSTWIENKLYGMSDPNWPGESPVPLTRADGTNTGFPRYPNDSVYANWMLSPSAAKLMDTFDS
From the text: (§1) 2.2 Experimental Reagents: • RET enzyme was purchased from Carna Company, and the article number was 08-159; • RET M918T enzyme was purchased from Carna Company, and the article number was 08-508; • KIF5B-RET was purchased from SignalChem Company, the article number was R02-19FG-05; • CCDC6-RET was purchased from SignalChem Company, the article number was R02-19BG-05; • RET V804M enzyme was purchased from Thermofisher Company, and the article number was PV6223; • RET V804L enzyme was purchased from Thermofisher Company, and the article number was PV4397; • HTRF KinEASE-TK kit was purchased from Cisbio Company, and the article number was 62TK0PEC; • ATP was purchased from Thermofisher Company, and the article number was PV3227; • 384-well plate was purchased from PerkinElmer Company, and the article number was 6007290.
(§2) In this experiment, a homogeneous time-resolved fluorescence (HTRF) method was used for the detection of compounds on RET kinase activity.

[2] = biological target: T2, RET V804M (Homo sapiens, UniProt P07949, V804M); experiment: HTRF kinase activity inhibition, RET V804M; format: biochemical; conditions: ATP at Km
T2 construct: purchased Thermofisher PV6223
From the text: as §1, §2

[3] = tested on: TT cells (MTC, RET C634W); experiment: Inhibition of proliferation of TT cells (CellTiter-Glo, 72 h); format: cell-based; conditions: Homo sapiens
In short: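 TT cells seeded overnight, then exposed to compound dilutions for 72 h at 37 °C, 5% CO2, with a solvent control. Viability read by CellTiter-Glo luminescence; IC50 from nonlinear regression of inhibition rate versus concentration.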

[4] = Balb/C mouse pharmacokinetics, oral 5 mg/kg; format: in vivo, Balb/C mice; conditions: male, p.o. 5 mg/kg, plasma; for MRT: read-out: Average residence time MRT; for Cmax: read-out: Blood concentration Cmax; for AUC(0-t): read-out: Curve area AUC0-t; for AUC(0-inf): read-out: Curve area AUC0-∞; for half-life: read-out: Half-life t1/2 (converted); for Tmax: read-out: Peak time tmax
In short: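 Male Balb/C mice (6 per compound) were fasted overnight and dosed in 0.5% CMC-Na (1% Tween80) solution or suspension. EDTA-K2 plasma was sampled at 0, 0.5, 1, 2, 4, 6, 8 and 24 h. Compound levels were measured by LC/MS/MS after acetonitrile precipitation, and PK parameters were derived from the plasma profiles.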

T2 sequence (P07949 29-1114 V804M): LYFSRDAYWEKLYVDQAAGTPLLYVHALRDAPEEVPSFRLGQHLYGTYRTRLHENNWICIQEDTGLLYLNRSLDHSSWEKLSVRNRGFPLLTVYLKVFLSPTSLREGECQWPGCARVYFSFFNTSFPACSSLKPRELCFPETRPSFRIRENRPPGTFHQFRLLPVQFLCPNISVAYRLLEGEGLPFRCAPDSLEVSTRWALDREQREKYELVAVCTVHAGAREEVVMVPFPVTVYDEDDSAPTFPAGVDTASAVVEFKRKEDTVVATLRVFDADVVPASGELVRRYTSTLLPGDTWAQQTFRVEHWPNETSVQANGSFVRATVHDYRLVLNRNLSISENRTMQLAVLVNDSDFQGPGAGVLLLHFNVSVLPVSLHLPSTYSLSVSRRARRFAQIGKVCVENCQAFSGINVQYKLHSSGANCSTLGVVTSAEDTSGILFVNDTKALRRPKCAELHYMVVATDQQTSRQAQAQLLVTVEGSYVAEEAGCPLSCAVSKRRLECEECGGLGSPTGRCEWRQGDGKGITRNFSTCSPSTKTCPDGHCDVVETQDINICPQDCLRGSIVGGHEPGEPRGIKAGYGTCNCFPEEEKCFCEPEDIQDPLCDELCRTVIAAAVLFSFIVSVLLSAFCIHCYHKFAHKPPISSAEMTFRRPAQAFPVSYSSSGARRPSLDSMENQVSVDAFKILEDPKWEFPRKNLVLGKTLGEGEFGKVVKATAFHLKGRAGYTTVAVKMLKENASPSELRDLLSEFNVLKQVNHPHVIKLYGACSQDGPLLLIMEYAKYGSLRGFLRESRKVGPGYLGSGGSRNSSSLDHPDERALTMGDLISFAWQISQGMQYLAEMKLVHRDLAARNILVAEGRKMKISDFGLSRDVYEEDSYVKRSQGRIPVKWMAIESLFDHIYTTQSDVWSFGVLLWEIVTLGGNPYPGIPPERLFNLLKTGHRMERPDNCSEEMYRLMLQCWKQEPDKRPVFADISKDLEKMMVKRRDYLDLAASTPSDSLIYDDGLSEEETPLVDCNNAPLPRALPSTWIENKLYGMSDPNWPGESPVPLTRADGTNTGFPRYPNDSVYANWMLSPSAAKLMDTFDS

SMILES | IC50 [1] [nM] | IC50 [2] [nM] | IC50 [3] [nM] | MRT [4] [h] | Cmax [4] [ng/mL] | AUC(0-t) [4] [ng·h/mL] | AUC(0-inf) [4] [ng·h/mL] | half-life [4] [h] | Tmax [4] [h]
C#C[C@](C)(O)COc1cc(-c2ccc(N3CC4CC(C3)N4Cc3ccc(OC)nc3)nc2)c2c(C#N)cnn2c1 [Embodiment 64, 6-(((S)-2-hydroxy-2-methylbut-3-yn-1-yl)oxy)-4-(6-(6-((6-methoxypyridin-3-yl)methyl)-3,6-diazabicyclo[3.1.1]heptan-3-yl)pyridin-3-yl)pyrazolo[1,5-a]pyridine-3-carbonitrile] | 0.36 | 3 | 27.8 | 2.7 | 3920 | 14500 | 14500 | 1.2 | 1
COc1ncc(CN2C3CC2CN(c2ccc(-c4cc(C#CC(C)(C)O)cn5ncc(C#N)c45)cn2)C3)cc1F [Embodiment 18, 4-(6-(6-((5-Fluoro-6-methoxypyridin-3-yl)methyl)-3,6-diazabicyclo[3.1.1]heptan-3-yl)pyridin-3-yl)-6-(3-hydroxy-3-methylbut-1-yn-1-yl)pyrazolo[1,5-a]pyridine-3-carbonitrile] | 0.97 | 1.8 | 19 | 4.61 | 2790 | 18200 | 18200 | 2.9 | 0.5
C#C[C@@](C)(O)COc1cc(-c2ccc(N3CC4CC(C3)N4Cc3ccc(OC)nc3)nc2)c2c(C#N)cnn2c1 [Embodiment 63, 6-(((R)-2-hydroxy-2-methylbut-3-yn-1-yl)oxy)-4-(6-(6-((6-methoxypyridin-3-yl)methyl)-3,6-diazabicyclo[3.1.1]heptan-3-yl)pyridin-3-yl)pyrazolo[1,5-a]pyridine-3-carbonitrile] | 0.53 | 0.6 | 14.1 | 2.9 | 2940 | 11000 | 11000 | 1.3 | 1
COc1ccc(CN2C3CC2CN(c2ccc(-c4cc(N5CC(C)(C#N)C5)cn5ncc(C#N)c45)cn2)C3)cn1 [Embodiment 77, 6-(3-Cyano-3-methylazetidin-1-yl)-4-(6-(6-((6-methoxypyridin-3-yl)methyl)-3,6-diazabicyclo[3.1.1]heptan-3-yl)pyridin-3-yl)pyrazolo[1,5-a]pyridine-3-carbonitrile] | 0.42 | 0.6 | 4.1 | 6 | 4680 | 51600 | 51900 | 3.2 | 0.5
